One data set has as its target T1, NTCP (Homo sapiens, UniProt Q14973).
T1 construct: the coding region ligated into pcDNA5/FRT; expressed in transfected cells
T1 sequence (Q14973 1-349): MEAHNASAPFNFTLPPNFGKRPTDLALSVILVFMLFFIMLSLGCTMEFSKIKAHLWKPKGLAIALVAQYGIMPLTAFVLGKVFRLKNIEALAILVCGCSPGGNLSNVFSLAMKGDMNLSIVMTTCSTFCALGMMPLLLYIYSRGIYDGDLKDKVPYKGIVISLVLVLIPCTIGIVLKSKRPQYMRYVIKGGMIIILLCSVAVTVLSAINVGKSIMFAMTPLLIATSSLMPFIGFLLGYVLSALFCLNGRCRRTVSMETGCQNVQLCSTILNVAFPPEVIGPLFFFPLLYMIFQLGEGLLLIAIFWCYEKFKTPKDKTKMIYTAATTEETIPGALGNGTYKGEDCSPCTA
Nature of the data set: Uptake of TC and CLF into CHO cells stably expressing NTCP. It counts as cell-based. The settings on record: 45 seconds, sodium-dependent uptake rates. As to the method: cDNA for human NTCP [Hagenbuch et al., J Clin Invest 1994 March; 93(3): 1326-1331] was cut with EcoRV and HindI and the coding region ligated into pcDNA5/FRT (Invitrogen, Life-Technologies, Carlsbad, Calif.). CHO FlpIn cells (Invitrogen, Life-Technologies) were transfected with the resulting construct using Lipofectamine® 2000 (Invitrogen, Life-Technologies). Stably transfected cells were selected with 550 μg Hygromycin-B in HAM-F12 medium (Gibco, Invitrogen, Life-Technologies). Transfected cells were cloned with the limiting dilution method. […] To further characterize the cloned cells, immunofluorescence localization of NTCP using a polyclonal antibody against NTCP [Kullak-Ublick G et al., Gastroenterology 1997 October; 113(4):1295-1305] was performed as described by Huber R D et al. [Am J Physiol Cell Physiol 2007 February; 292(2):[…]-[…]]. CHO cells expressing OATP1B1, OATP1B3 and OATP2B1 were described previously [Treiber et al., DMD 35:1400-1407, 2007]. For all transport experiments, cells grown on 3 cm culture dishes were cultured for 24 hours in media supplemented with 5 mmol/L sodium-butyrate to increase expression levels of transfected transporters [Palermo D P et al., J Biotechnol 1991 June; 19(1):35-47]. • Transport experiments with uptake of radioactively labeled substrates: These experiments were performed as described by Huber R D et al. […] Uptake was performed in the same buffers as for the radioactive substrates above. For visualization of CLF uptake, cells were immediately inspected with a Leica-DM-IRBE-inverted-microcope (Leica-Microsystems, Wetzlar, Germany) equipped with a Hamamatsu-ORKA-ER-camera (Hamamatsu-Photonoics, Japan). To determine uptake of CLF, cells were solubilized by the addition of 2 ml 1% (w/v) Triton-X-100. After complete solubilization, 1.5 ml was used to measure fluorescence in a Perkin-Elmer LS-5 luminescence-spectrometer set at λexe 486 nm (slit 10 nm) and λem 520 nm (slit 5 nm). Protein was determined with the bicinchoninic acid method using a kit from Interchim (Montfuçon, France). […]

Substrate in data set [1]: CC(CCC(=O)NC(CCCCNC(=S)Nc1ccc(-c2c3ccc(=O)cc-3oc3cc(O)ccc23)c(C(=O)O)c1)C(=O)O)C1CCC2C3C(O)CC4CC(O)CCC4(C)C3CC(O)C12C
Nature of the data set: ATP-dependent transport of CLF into Sf21 membrane vesicles containing ABCC2. It counts as biochemical, human. The note with it: other: 10 μg total protein, presence or absence of 4 mmol/L ATP; 27.0 °C. As to the method: (§1) The production of recombinant baculovirus was as described by de Waart et al. [Liver Int 2006 April; 26(3):362-368]. ABCC3 and ABCG2-recombinant baculovirus were a kind gift from Borst [Breedveld P. et al., Cancer Res 2004 Aug. 15; 64(16):5804-5811 and Borst P. et al., J Biol Chem 2001 Dec. 7; 276(49):46400-46407.]. ABCB11-recombinant baculovirus was a kind gift from Thompson [Thompson R J et al., Gastroenterology 2002 November; 123(5):1649-1658]. Sf21 cells grown at 27° C. were infected with ABCB11, ABCC2, ABCC3 and ABCG2-cDNA containing baculovirus. Cells were harvested at 2-4 days after infection. Membrane vesicle preparation was as described by de Waart et al. [Liver Int 2006 April; 26(3):362-368].
(§2) Transport studies with membrane vesicles were performed using the rapid filtration technique as described by Heijn M et al. [Am J Physiol 1992 January; 262(1 Pt 1):C104-C110]. Radiolabel was measured with a scintillation counter. When CLF was used as a probe, filters were placed in a glass tube, 0.1% Triton-X-100 was added and the tubes vortexed. Samples were pipetted in 96-well plates (Kartell, Noviglio, Italy) and the amount CLF quantitated by measurement of fluorescence at λexe 485 nm and λcm 520 nm using a NovoStar (BMG-labtech, Offenburg, Germany). […]

Substrate in data set [2]: CC(CCC(=O)NC(CCCCNC(=S)Nc1ccc(-c2c3ccc(=O)cc-3oc3cc(O)ccc23)c(C(=O)O)c1)C(=O)O)C1CCC2C3C(O)CC4CC(O)CCC4(C)C3CC(O)C12C
Nature of the data set: ATP-dependent transport of CLF into Sf21 membrane vesicles containing ABCC3. It counts as biochemical, human. The settings on record: other: 30 μg total protein, presence or absence of 4 mmol/L ATP; 27.0 °C. On the procedure: as §1, §2

Take `C[C@H](CCC(=O)NCCS(=O)(=O)O)[C@H]1CC[C@H]2[C@@H]3[C@H](O)C[C@@H]4C[C@H](O)CC[C@]4(C)[C@H]3C[C@H](O)[C@]12C` [TC, taurocholate]: the “Vmax for sodium-dependent transport of TC” value at NTCP is given as 6738 pmol TC/mg protein/min. Further, the Michaelis-Menten constant (Km) at NTCP (read-out: Km for sodium-dependent transport of TC) was found to be 16 µM.

B1: ABCC2 (Homo sapiens) (protein)
chain: MLEKFCNSTFWNSSFLDSPEADLPLCFEQTVLVWIPLGYLWLLAPWQLLHVYKSRTKRSSTTKLYLAKQVFVGFLLILAAIELALVLTEDSGQATVPAVRYTNPSLYLGTWLLVLLIQYSRQWCVQKNSWFLSLFWILSILCGTFQFQTLIRTLLQGDNSNLAYSCLFFISYGFQILILIFSAFSENNESSNNPSSIASFLSSITYSWYDSIILKGYKRPLTLEDVWEVDEEMKTKTLVSKFETHMKRELQKARRALQRRQEKSSQQNSGARLPGLNKNQSQSQDALVLEDVEKKKKKSGTKKDVPKSWLMKALFKTFYMVLLKSFLLKLVNDIFTFVSPQLLKLLISFASDRDTYLWIGYLCAILLFTAALIQSFCLQCYFQLCFKLGVKVRTAIMASVYKKALTLSNLARKEYTVGETVNLMSVDAQKLMDVTNFMHMLWSSVLQIVLSIFFLWRELGPSVLAGVGVMVLVIPINAILSTKSKTIQVKNMKNKDKRLKIMNEILSGIKILKYFAWEPSFRDQVQNLRKKELKNLLAFSQLQCVVIFVFQLTPVLVSVVTFSVYVLVDSNNILDAQKAFTSITLFNILRFPLSMLPMMISSMLQASVSTERLEKYLGGDDLDTSAIRHDCNFDKAMQFSEASFTWEHDSEATVRDVNLDIMAGQLVAVIGPVGSGKSSLISAMLGEMENVHGHITIKGTTAYVPQQSWIQNGTIKDNILFGTEFNEKRYQQVLEACALLPDLEMLPGGDLAEIGEKGINLSGGQKQRISLARATYQNLDIYLLDDPLSAVDAHVGKHIFNKVLGPNGLLKGKTRLLVTHSMHFLPQVDEIVVLGNGTIVEKGSYSALLAKKGEFAKNLKTFLRHTGPEEEATVHDGSEEEDDDYGLISSVEEIPEDAASITMRRENSFRRTLSRSSRSNGRHLKSLRNSLKTRNVNSLKEDEELVKGQKLIKKEFIETGKVKFSIYLEYLQAIGLFSIFFIILAFVMNSVAFIGSNLWLSAWTSDSKIFNSTDYPASQRDMRVGVYGALGLAQGIFVFIAHFWSAFGFVHASNILHKQLLNNILRAPMRFFDTTPTGRIVNRFAGDISTVDDTLPQSLRSWITCFLGIISTLVMICMATPVFTIIVIPLGIIYVSVQMFYVSTSRQLRRLDSVTRSPIYSHFSETVSGLPVIRAFEHQQRFLKHNEVRIDTNQKCVFSWITSNRWLAIRLELVGNLTVFFSALMMVIYRDTLSGDTVGFVLSNALNITQTLNWLVRMTSEIETNIVAVERITEYTKVENEAPWVTDKRPPPDWPSKGKIQFNNYQVRYRPELDLVLRGITCDIGSMEKIGVVGRTGAGKSSLTNCLFRILEAAGGQIIIDGVDIASIGLHDLREKLTIIPQDPILFSGSLRMNLDPFNNYSDEEIWKALELAHLKSFVASLQLGLSHEVTEAGGNLSIGQRQLLCLGRALLRKSKILVLDEATAAVDLETDNLIQTTIQNEFAHCTVITIAHRLHTIMDSDKVMVLDNGKIIECGSPEELLQIPGPFYFMAKEAGIENVNSTKF
notes: made in house; host or cells: Sf21 insect cells, baculovirus; plasma membrane vesicles
For the molecule B1, the Km in data set [1] worked out at 3.3 ± 2.0 µM.

B2: ABCC3 (Homo sapiens) (protein)
chain: MDALCGSGELGSKFWDSNLSVHTENPDLTPCFQNSLLAWVPCIYLWVALPCYLLYLRHHCRGYIILSHLSKLKMVLGVLLWCVSWADLFYSFHGLVHGRAPAPVFFVTPLVVGVTMLLATLLIQYERLQGVQSSGVLIIFWFLCVVCAIVPFRSKILLAKAEGEISDPFRFTTFYIHFALVLSALILACFREKPPFFSAKNVDPNPYPETSAGFLSRLFFWWFTKMAIYGYRHPLEEKDLWSLKEEDRSQMVVQQLLEAWRKQEKQTARHKASAAPGKNASGEDEVLLGARPRPRKPSFLKALLATFGSSFLISACFKLIQDLLSFINPQLLSILIRFISNPMAPSWWGFLVAGLMFLCSMMQSLILQHYYHYIFVTGVKFRTGIMGVIYRKALVITNSVKRASTVGEIVNLMSVDAQRFMDLAPFLNLLWSAPLQIILAIYFLWQNLGPSVLAGVAFMVLLIPLNGAVAVKMRAFQVKQMKLKDSRIKLMSEILNGIKVLKLYAWEPSFLKQVEGIRQGELQLLRTAAYLHTTTTFTWMCSPFLVTLITLWVYVYVDPNNVLDAEKAFVSVSLFNILRLPLNMLPQLISNLTQASVSLKRIQQFLSQEELDPQSVERKTISPGYAITIHSGTFTWAQDLPPTLHSLDIQVPKGALVAVVGPVGCGKSSLVSALLGEMEKLEGKVHMKGSVAYVPQQAWIQNCTLQENVLFGKALNPKRYQQTLEACALLADLEMLPGGDQTEIGEKGINLSGGQRQRVSLARAVYSDADIFLLDDPLSAVDSHVAKHIFDHVIGPEGVLAGKTRVLVTHGISFLPQTDFIIVLADGQVSEMGPYPALLQRNGSFANFLCNYAPDEDQGHLEDSWTALEGAEDKEALLIEDTLSNHTDLTDNDPVTYVVQKQFMRQLSALSSDGEGQGRPVPRRHLGPSEKVQVTEAKADGALTQEEKAAIGTVELSVFWDYAKAVGLCTTLAICLLYVGQSAAAIGANVWLSAWTNDAMADSRQNNTSLRLGVYAALGILQGFLVMLAAMAMAAGGIQAARVLHQALLHNKIRSPQSFFDTTPSGRILNCFSKDIYVVDEVLAPVILMLLNSFFNAISTLVVIMASTPLFTVVILPLAVLYTLVQRFYAATSRQLKRLESVSRSPIYSHFSETVTGASVIRAYNRSRDFEIISDTKVDANQRSCYPYIISNRWLSIGVEFVGNCVVLFAALFAVIGRSSLNPGLVGLSVSYSLQVTFALNWMIRMMSDLESNIVAVERVKEYSKTETEAPWVVEGSRPPEGWPPRGEVEFRNYSVRYRPGLDLVLRDLSLHVHGGEKVGIVGRTGAGKSSMTLCLFRILEAAKGEIRIDGLNVADIGLHDLRSQLTIIPQDPILFSGTLRMNLDPFGSYSEEDIWWALELSHLHTFVSSQPAGLDFQCSEGGENLSVGQRQLVCLARALLRKSRILVLDEATAAIDLETDNLIQATIRTQFDTCTVLTIAHRLNTIMDYTRVLVLDKGVVAEFDSPANLIAARGIFYGMARDAGLA
notes: made in house; host or cells: Sf21 insect cells, baculovirus (gift from Borst); plasma membrane vesicles
B2: in data set [2], the Km came to 3.7 ± 1.0 µM.
